Measured values as given in paper PMC11062899, “De novo development of small cyclic peptides that are orally bioavailable” (Nature Chemical Biology, 2023).
Values joined by “and” are separate entries in the source; they are usually repeats but may differ in a detail not shown here. Identical values can stand only once. Like-named read-outs stand apart in the source and are kept apart here.

Assays:
human α-thrombin = human α-thrombin (Homo sapiens, UniProt P00734); experiment: Protease inhibition, Ki for human α-thrombin (fluorogenic substrate Z-Gly-Gly-Arg-AMC); format: biochemical; settings: for slope normalized to DMSO, human alpha thrombin inhibition: replicates R1-R3
Procedure, shortened: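 Ki derived through Cheng–Prusoff from IC50s (four-parameter logistic fit) against activity of peptide-free controls. Product fluorescence was read every 3 min over 30 min at 25 °C, substrate Z-Gly-Gly-Arg-AMC at 50 μM. Enzyme was 2 nM human or 3 nM rat α-thrombin, pH 7.4 buffer.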

in vivo = settings: rat
Description: Male Wistar Han rats (250–350 g) obtained at an age of 9–10 weeks from Charles River Laboratories were used for the studies and kept in housing groups of two or three. Experiments were performed at the age of 10–11 weeks. Intravenous (i.v.) administrations were carried out using tail vein injections. Peptides were dissolved in pure DMSO and diluted with 5% Cremophor EL in water (5% DMSO final) at a concentration of 0.5 mg ml^−1. I.v. administration was carried out at a dose of 1 mg kg^−1 body weight via the left lateral tail vein of rats (n = 3) using an Insyte-W 24 G × 0.75 in. (0.7 mm × 19 mm) temporary peripheral venous catheter (BD Biosciences, 381312). Before injecting the peptide solution, a correct placement of the catheter was confirmed by an apparent reflux of blood through the catheter. Orally (p.o.) administrated peptides were dissolved in DMSO and diluted with 10% Cremophor EL in water (5% DMSO final) at a concentration of 1 mg ml^−1 and administrated by oral gavage to rats (n = 3) at a dose of 10 mg kg^−1. Rats used for oral administration were fasted overnight for 14 h and provided access to food again 2 h after administration, whereas access to water was not restricted throughout the whole experimental procedure. Volumes of 100 μl of blood samples were collected via the right lateral tail vein at different timepoints after i.v. or p.o. administration into heparinized tubes (Sarstedt, 20.1282); the samples were stored on ice for up to 4 h; and plasma was obtained by centrifugation at 2,000g for 5 min at 4 °C. A volume of 40 μl of plasma was added to 120 μl of an acetonitrile:water (9:1) solution containing an internal standard (5 μg ml^−1). Samples were vortexed for 10 s and sonicated for 10 min, and precipitated plasma proteins were pelleted by centrifugation at 16,000g for 15 min at 4 °C. Volumes of 120 μl of supernatant were transferred to a new tube, and solvent was evaporated in a rotary vacuum concentrator (RVC 2–33 CDplus IR, Christ) for 2 h at 40 °C. Dried residues were dissolved in 20 μl of a water:acetonitrile (7:3) (v/v) solution, centrifuged at 14,000g for 5 min and analyzed by LC–MS. Peptides were quantified by extracting ion chromatograms corresponding to their respective mass, integrating the area under the peptide peak and calculating the concentrations by normalization to a calibration curve. Calibration curves were prepared by analyzing spiked samples of blood or plasma with known concentrations of peptide. The absolute oral bioavailability was calculated using equation (6).6 F=AUCp.o./AUCi.v.×Dosei.v./Dosep.o.×100 where AUCp.o. and AUCi.v. are calculated from a plasma concentration versus time curve using the linear trapezoidal rule, and Dosei.v. and Dosep.o. are the intravenously or orally administrated amount of peptide in mg kg^−1.

[1] = Passive artificial membrane permeability (PAMPA);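 on Permeability% Average: top well sample relative to theoretical equilibrium sample by TIC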
Description: The plate system consisted of a 96-well microwell plate (donor wells) and a 96-well insert containing a PVDF membrane coated with tri-layers of phospholipids (acceptor wells). Permeability was measured from the bottom plate (donor wells) to the top insert (acceptor wells). Cyclic peptide or reference compound solutions were prepared at a concentration of 50 μM in PBS buffer (pH 7.4) containing 5% DMSO, and 300 μl of the resulting solutions was placed into the donor wells of the PAMPA plate. Acceptor wells were prepared by adding 200 μl of PBS buffer (pH 7.4) containing 5% DMSO. The insert was stacked onto the donor plate, and the system was covered with a lid to avoid evaporation. […] Additionally, 3:2 dilutions of the 50 μM cyclic peptide stocks were prepared in PBS buffer (pH 7.4) containing 5% DMSO to yield a sample corresponding to the theoretical equilibrium between donor and acceptor wells. The samples were run on the LC–MS to measure the cyclic peptide concentration representing maximum permeability. Permeability percent was calculated using equation (4) below.4 Permeability%=PeptideAcceptor/PeptideEquilibrated×100 where [PeptideAcceptor] represents the AUC measured on the LC–MS for the acceptor wells, and [PeptideEquilibrated] represents the AUC measured for the samples diluted to the theoretical equilibrium. Detection limit for the assay was typically at 1% permeability.
Papp values were calculated using equation (5).5 Papp=VD×VA/VD+VA×A×t×−ln1−PeptideAcceptor/PeptideEquilibrated where VD and VA are the volumes of donor and acceptor wells, respectively; A is the area of the membrane; and t is the incubation time.

[2] = male, Wistar Han, iv, 1 mg/kg, Concentration in blood samples
[3] = male, Wistar Han, po, 10 mg/kg, Concentration in blood samples

O=C1C[C@H]2CCCN2C(=O)[C@H](Cc2ccccc2)NC(=O)[C@@H](NC(=O)c2ccc(Cl)cc2)CCC=CCCCCN1 (mixture of isomers) [peptide 46]
Ki (human α-thrombin; average of R1-R3, read-out: Ki Average, human alpha thrombin inhibition): 65.1 nM | IC50 (human α-thrombin; individual replicates R1-R3, read-out: IC50, human alpha thrombin inhibition): 94.1 nM and 79.8 nM and 79.7 nM | Ki (human α-thrombin; individual replicates R1-R3, read-out: Ki, human alpha thrombin inhibition): 72.5 nM (2×) and 61.5 nM (2×) and 61.4 nM (2×) | slope normalized to DMSO, human alpha thrombin inhibition (human α-thrombin; peptide 1.00E+02 uM): 10.4 and 9.8 and 9.9 | slope normalized to DMSO, human alpha thrombin inhibition (human α-thrombin; peptide 1.19E-05 uM): 103.8 and 104.1 and 105.5 | slope normalized to DMSO, human alpha thrombin inhibition (human α-thrombin; peptide 1.22E-02 uM): 87.6 and 86.9 (2×) | slope normalized to DMSO, human alpha thrombin inhibition (human α-thrombin; peptide 1.25E+01 uM): 5.3 and 12.2 and 12.4 | slope normalized to DMSO, human alpha thrombin inhibition (human α-thrombin; peptide 1.53E-03 uM): 101.5 and 101.1 and 102.6 | slope normalized to DMSO, human alpha thrombin inhibition (human α-thrombin; peptide 1.56E+00 uM): 20.2 and 17.9 and 18.1 | slope normalized to DMSO, human alpha thrombin inhibition (human α-thrombin; peptide 1.91E-04 uM): 103.2 and 104.0 and 103.7 | slope normalized to DMSO, human alpha thrombin inhibition (human α-thrombin; peptide 1.95E-01 uM): 45.4 and 43.2 and 43.8 | slope normalized to DMSO, human alpha thrombin inhibition (human α-thrombin; peptide 2.38E-05 uM): 104.8 and 104.2 and 105.6 | slope normalized to DMSO, human alpha thrombin inhibition (human α-thrombin; peptide 2.44E-02 uM): 80.1 and 79.6 and 79.3 | slope normalized to DMSO, human alpha thrombin inhibition (human α-thrombin; peptide 2.50E+01 uM): 11.9 and 11.0 and 10.5 | slope normalized to DMSO, human alpha thrombin inhibition (human α-thrombin; peptide 3.05E-03 uM): 97.6 and 98.1 and 98.6 | slope normalized to DMSO, human alpha thrombin inhibition (human α-thrombin; peptide 3.12E+00 uM): 16.0 and 13.3 and 14.6 | slope normalized to DMSO, human alpha thrombin inhibition (human α-thrombin; peptide 3.81E-04 uM): 102.7 and 102.9 and 102.6 | slope normalized to DMSO, human alpha thrombin inhibition (human α-thrombin; peptide 3.91E-01 uM): 32.0 and 29.5 and 28.9 | slope normalized to DMSO, human alpha thrombin inhibition (human α-thrombin; peptide 4.77E-05 uM): 102.3 and 105.2 and 103.4 | slope normalized to DMSO, human alpha thrombin inhibition (human α-thrombin; peptide 4.88E-02 uM): 66.2 and 64.4 and 64.1 | slope normalized to DMSO, human alpha thrombin inhibition (human α-thrombin; peptide 5.00E+01 uM): 11.3 and 10.4 and 8.0 | slope normalized to DMSO, human alpha thrombin inhibition (human α-thrombin; peptide 6.10E-03 uM): 94.3 and 94.6 and 94.4 | slope normalized to DMSO, human alpha thrombin inhibition (human α-thrombin; peptide 6.25E+00 uM): 14.8 and 13.5 (2×) | slope normalized to DMSO, human alpha thrombin inhibition (human α-thrombin; peptide 7.63E-04 uM): 99.9 and 102.3 and 103.3 | slope normalized to DMSO, human alpha thrombin inhibition (human α-thrombin; peptide 7.81E-01 uM): 26.0 and 24.0 (2×) | slope normalized to DMSO, human alpha thrombin inhibition (human α-thrombin; peptide 9.54E-05 uM): 102.8 and 104.6 and 103.3 | slope normalized to DMSO, human alpha thrombin inhibition (human α-thrombin; peptide 9.77E-02 uM): 53.1 and 52.5 | Concentration in blood samples (in vivo; male, Wistar Han, iv, 1 mg/kg, 1 h): 90 nM | level at time molar at 0.08 h (in vivo; [2]): 1310 nM | level at time molar at 0.25 h (in vivo; [2]): 590 nM | level at time molar at 0.5 h (in vivo; [2]): 280 nM | level at time molar at 1 h (in vivo; [2]): 120 nM | level at time molar at 2 h (in vivo; [2]): 53.5 nM | level at time molar at 0.5 h (in vivo; [3]): 290 nM | level at time molar at 1 h (in vivo; [3]): 240 nM | level at time molar at 2 h (in vivo; [3]): 200 nM | level at time molar at 8 h (in vivo; [3]): 17.1 nM | bioavailability (in vivo; po): 18.4 ± 1.9% | Cmax (in vivo; po, 10 mg/kg): 400 ± 120 nM | PAMPA permeability: % permeability ([1]; 50 μM, 12–18 h, acceptor concentration relative to equilibrium): 55 ± 8% | Permeability% (single replicates R1–R3) ([1]; 50 μM, 12 h (Fig. 6d)): 49.41% and 50.43% and 63.83% | Permeability% Average ([1]; 50 μM, 12 h (Fig. 6d)): 54.6% | Papp at 50 μM ([1]; PAMPA, pH 7.4): 7.76 ×10⁻⁶ cm/s
